Read-outs that look alike come from different tables or passages of the source. Positions of bridges follow the written chain, without caps; N, C: chain ends. Non-standard residues stand in square brackets, D forms with d. Residues, ends and D or L forms follow the SMILES beside them.
Method: In order to stabilize the compound toward such decomposition it was treated in aqueous solution with 10-40 mole % of N-ethylmaleimide, a reagent which will react with free sulfhydryl groups that could catalyze disulfide interchange. The excess N-ethyl maleimide was separated by passage through a column of Sephadex° G-25 gel (superfine) eluted with 50% acetic acid.

Compound: C[C@@H](O)[C@@H]1NC(=O)[C@H](CCCCN)NC(=O)[C@@H](Cc2c[nH]c3ccccc23)NC(=O)[C@H](Cc2ccccc2)NC(=O)[C@@H]2CSSC[C@H](NC1=O)C(=O)N2 [Example 6] (cyclo(CCF[dW]KT); disulfide 1-2)
- stability with respect to polymerization (after treatment in aqueous solution with 10-40 mole % of N-ethylmaleimide and reisolation): completely stable
- stability with respect to polymerization (sample as isolated, in certain solvents or on extended storage): unstable with respect to polymerization
